From patent publication US10953017B2, “Treatment of neurodegenerative diseases, causation of memory enhancement, and assay for screening compounds for such” (Southern Research Institute, priority 2009, dated 2021)

These molecules were tested on I-kB and NF-kB p65 (assay: Effect on I-kB and NF-kB p65 in cytoplasm and nucleus (FIG. 14)). Details: FIG. 14 A.
Type: cell-based
Excerpt: A) I-kB was not affected by CMPD exposure while it was reduced by TNF. B) CMPDs increased cytoplasmic NF-kB p65. C) CMPDs increased nuclear localization of NF-kB p65. D) The sum of CMPD effects on P65 in the cytoplasm and in the nucleus.
TNF-α [reference compound] was tested, and the I-kB was “reduced”.

What follows are molecules tested on NF-kB (assay: NF-kB promoter-driven firefly luciferase reporter assay in SH-5YSY clone C1). Details: 0.625 up to 40 ng/ml.
Type: cell-based, human
Excerpt: SH-5YSY human neuroblastoma cell line was obtained from the American Tissue Culture collection (ATCC). The cells were expanded and frozen for long term storage. A commercially available expression vector containing the NF-kB promoter enhancer region driving the firefly lucipherase gene expression (see FIG. 1) was obtained. This plasmid was designed for transient expression studies and was devoid of any antibiotic-resistance conferring gene. A second plasmid containing the gene conferring resistance to blasticidin was also used. A dual transfection approach to obtain stable cell lines was employed. Prior to transfection, blasticidin sensitivity of the cell line was performed (See FIG. 2). It was determined that SH-5YSY cells were sensitive to the antibiotic toxicity and that 3 μg/ml caused total cell death (FIG. 2). After expanding and purifying adequate quantities of these plasmids, SH-5YSY cells were co-transfected with the above two plasmids and the clonal selection of the transfected cells in the presence of blasticidin proceeded. Several clones were identified that were both resistant to blasticidin and expressed the firefly luciferase upon exposure to TNF-α, □ a known inducer of NF-kB (See FIG. 3). After several assessments, a clone, C1, which expressed high levels of stimulated-luciferase expression and maintained it over time (see FIG. 3) was identified. To date, this clone has been in culture for over 37 passages without significant decline of the gene of interest induction. The optimal conditions for this assay to be carried out in a high throughput setting has been determined. Initially, the optimal number of cells needed was assessed. In FIG. 4 it is shown the effect of using a range of cells from 10,000 to 40,000. […] The assays has have been implemented using a similar cell density for HTS analysis without excessive problems. This cell line allows growing large scale quantities of cells fairly easily.
Successively, the optimal time of incubation and media requirements were assessed. […] These conditions are relatively affordable in HTS settings. Finally, since during robotic handling the plates containing the cells spend a significant amount of time outside the incubator and since phenol red could interfere with the reagents in the luciferase activity assay kit, the effect of using a phenol red free HEPES-buffered media was assessed. As shown in FIG. 5 there is a very little effect of phenol red free, HEPES-buffered media on the assay response and dynamic range. Therefore, the assessment is that it is possible to run this assay using these more forgiving media. Since the compounds contained in the most commonly used libraries are dissolved in DMSO, the effect of DMSO on both luciferase expression in response to TNF-α and C1 clone survival during assay simulations was characterized. The effect of increasing concentration of DMSO ranging from 0.05% through 0.5% on TNF-α induction of luciferase (black line and black scale) is shown in FIG. 6. Also the effect of DMSO on baseline expression of luciferase in the C1 clone is shown in FIG. 6 (gray line and gray scale). In FIG. 7, it is shown the effect of DMSO on cell survival in the same conditions described in FIG. 6. In these experimental settings cells, settled for 24 hours, and then were incubated for an additional 24 hours with DMSO at the indicated concentrations. At the end of the incubation phase cell viability was assessed using the commercially available kit Cell Titer Glo™ following the manufacturer instructions ([…]). […] Finally, the effect of different concentrations of TNF-α was studied in the clone C1.
Essential to development of an assay for high throughput screening is the assessment of Z′ values. This statistical parameter assesses the possibility that data obtained in a single well are statistically significant. In general, assays can generate negative and positive Z′ values. Negative Z′ values indicate a very unpredictable assay. […]
In the case of TNF-α [reference compound], the “luciferase expression in C1 cells” value is reported as “linear increase”.

Same assay, conditions: Homo sapiens; SH-5YSY clone C1, NF-kB luciferase reporter
For `O=C1/C(=C\c2ccco2)Sc2ccccc21` [AB00083422], the IC50 was 3650 µM. `Oc1ccc2ccccc2c1C1NN=C(c2ccccc2)S1` (stereo not drawn) [AB00093094] was tested, and the IC50 was 0.788 µM. For `COc1ccc(-c2csc(Nc3ccc(N(C)C)cc3)n2)cc1` [AB00101290], the IC50 was 0.144 µM. Molecule `Cc1ccc(-c2csc(Nc3ccc(C(=O)O)cc3)n2)cc1C` [AB00097765] has an IC50 of 0.062 µM. Molecule `COc1ccc(-c2noc(-c3cccc(OC)c3)n2)cc1` [AB00093467] has an IC50 of 0.082 µM. Work on `O=C(CCN1C(=O)/C(=C\C=C\c2ccccc2)SC1=S)Nc1cc(Cl)ccc1O` [AB00120582] yielded an IC50 of 146 µM. Work on `Oc1ccccc1C1NN=C(c2ccccc2)S1` (stereo not drawn) [AB00092734] yielded an IC50 of 0.382 µM. `O=c1[nH]c(/C=C/c2ccc(O)cc2)nc2ccccc12` [AB00097657] gave an IC50 of 0.064 µM. Work on `CC(C)(C)c1ccc(-c2csc(N)n2)cc1` [AB00095939] yielded an IC50 of 0.133 µM. With `Fc1ccc(-c2nc3n(n2)Cc2ccccc2-3)cc1` [AB00371839] the IC50 was 0.125 µM. With `CC(=O)CSc1nc2cc3c(cc2cc1C#N)OCCO3` [AB00614173] the IC50 was 0.104 µM. With `COc1ccc(-c2cc(-c3ccccc3O)[nH]n2)cc1` [AB00461411] the IC50 was 0.968 µM. Work on `CCC(=O)NC(c1ccc(C)cc1)c1ccc2cccnc2c1O` (stereo not drawn) [AB00101018] yielded an IC50 of 3.17 µM. Work on `O=C(O)c1ccc(-c2nnc(-c3ccccc3Cl)o2)cc1` [AB00101507] yielded an IC50 of 0.337 µM. `Nc1nc(-c2ccc(-c3ccccc3)cc2)cs1` [AB00074195] showed an IC50 of 0.122 µM. For `Cc1nnc(SCC(=O)Nc2ccc(-c3nc4ccccc4s3)cc2)s1` [AB00317535], the IC50 was 0.328 µM. With `Cc1ccccc1-c1cc(-c2ccccc2O)n[nH]1` [AB00101695] the IC50 was 0.579 µM. Molecule `COc1cc(NCc2cnc3nc(N)nc(N)c3c2C)cc(C(F)(F)F)c1` [AB00443206] has an IC50 of 0.123 µM. `CCC(=O)NC(c1ccccc1Cl)c1ccc2cccnc2c1O` (stereo not drawn) [AB00100961] gave an IC50 of 3.97 µM. Work on `CN(Cc1cnc2nc(N)nc(N)c2c1)c1ccc(C(=O)N[C@@H](CCC(=O)O)C(=O)O)cc1` [AB00171904] yielded an IC50 of 0.159 µM. In the case of `c1ccc2oc(-c3csc(N4CCOCC4)n3)cc2c1` [AB00613917], the IC50 is reported as 0.966 µM. Work on `S=C(c1ccc(-c2cccc(Cl)c2)o1)N1CCOCC1` [AB00092117] yielded an IC50 of 3.4 µM. For `Cc1ccc2nc(-c3ccc(NC(=O)CCN4C(=O)c5ccccc5C4=O)cc3)sc2c1` [AB00547004], the IC50 was 0.155 µM. In the case of `CCC(=O)NC(c1cccc([N+](=O)[O-])c1)c1ccc2cccnc2c1O` (stereo not drawn) [AB00101133], the IC50 is reported as 3.7 µM. Work on `COc1cc(C)c(S(=O)(=O)Nc2ccc(-c3nc4ccc(C)cc4s3)cc2)c(C)c1C` [AB00012207] yielded an IC50 of 0.155 µM. In the case of `Clc1ccc(C2NN=C(c3ccccc3)S2)cc1` (stereo not drawn) [AB00093093], the IC50 is reported as 4.06 µM. Work on `Clc1ccc(-c2nnc(-c3ccccc3Cl)o2)cc1` [AB00084000] yielded an IC50 of 0.062 µM. `Cc1ccc(NC(=O)N2CCc3ccccc32)cc1C` [AB00616066] showed an IC50 of 0.361 µM. `COc1ccccc1-c1nc(-c2ccccc2Cl)no1` [AB00093511] was tested, and the IC50 was 0.079 µM. In the case of `O=C(/C=C\Nc1cc(Cl)ccc1O)c1ccc2c(c1)OCO2` [AB00101723], the IC50 is reported as 0.213 µM. Work on `COc1ccc(NC(=O)N2CCc3ccccc32)cc1` [AB00329861] yielded an IC50 of 0.697 µM. `O=C(/C=C/Nc1cc(Cl)ccc1O)c1ccccc1` [AB00087011] was tested, and the IC50 was 0.213 µM. In the case of `Brc1cccc(-c2cn3ccsc3n2)c1` [AB00093745], the IC50 is reported as 0.251 µM. Work on `C=CCNc1nc(-c2cc3ccccc3o2)cs1` [AB00546606] yielded an IC50 of 0.598 µM. `S=C(c1ccc(-c2ccc(Cl)cc2)o1)N1CCOCC1` [AB00092070] was tested, and the IC50 was 0.775 µM. Work on `O=C1/C(=C\c2ccc(O)cc2)Sc2ccccc21` [AB00083765] yielded an IC50 of 3.72 µM. For `Cc1ccc(/C=C2/SC(=S)N(CCC(=O)Nc3ccc(O)cc3)C2=O)cc1` [AB00089877], the IC50 was 1310 µM. For `O=c1c(-c2ccc3c(c2)OCCO3)coc2cc(O)cc(O)c12` [AB00390364], the IC50 was 22.7 µM. `Cc1ccc(-c2csc(Nc3ccccc3)n2)cc1` [AB00079697] showed an IC50 of 0.142 µM. Molecule `CC(C)Oc1cc(O)c2c(=O)c(-c3ccc(O)cc3)coc2c1` [AB00431689] has an IC50 of 4.52 µM. For `COc1cccc(-c2nnc(-c3ccccc3NS(=O)(=O)c3ccc(NC(C)=O)cc3)o2)c1` [AB00027137], the IC50 was 0.13 µM. `O=C(Nc1ccc(F)cc1)N1CCc2ccccc21` [AB00105762] was tested, and the IC50 was 0.18 µM. Work on `Fc1ccc(-c2cn3ccsc3n2)cc1` [AB00093742] yielded an IC50 of 0.382 µM. `COc1ccc(-c2coc3cc(OC)cc(O)c3c2=O)cc1` [AB00052939] was tested, and the IC50 was 1.73 µM. `O=C(CCN1C(=O)/C(=C\C=C\c2ccccc2)SC1=S)Nc1ccc(C(=O)O)cc1` [AB00121550] showed an IC50 of 0.545 µM. `CCOC(=O)CC[C@H](NC(=O)c1ccc(NCc2cnc3nc(N)nc(N)c3c2C)cc1)C(=O)OCC` [AB00174102] showed an IC50 of 0.345 µM. `S=C(c1ccc(-c2ccc(Cl)c(Cl)c2)o1)N1CCOCC1` [AB00091724] gave an IC50 of 5.19 µM. With `Oc1ccccc1-c1cc(-c2ccc3c(c2)OCCO3)[nH]n1` [AB00440877] the IC50 was 0.639 µM. `COc1ccccc1C1CCN(C(=O)NCCc2ccccc2)CC1` [AB00013805] showed an IC50 of 0.067 µM. With `Cc1ccc(/C=C2\Sc3ccccc3C2=O)s1` [AB00534272] the IC50 was 5.98 µM. For `COC(=O)c1sc2nc(-c3ccccc3)ccc2c1N` [AB00079098], the IC50 was 0.067 µM. Work on `Cc1ccc2nc(-c3ccc(NC(=O)COC(=O)c4cncc(Br)c4)cc3)sc2c1` [AB00542926] yielded an IC50 of 0.393 µM. `Cc1ccc2nc(-c3ccc(NS(=O)(=O)c4ccc(F)c(Cl)c4)cc3)sc2c1` [AB00011625] showed an IC50 of 0.111 µM. Work on `COc1ccc(C(=O)/C=C(\C)Nc2ccccc2O)cc1` [AB00102118] yielded an IC50 of 0.235 µM. `C=C(C)CN(CC)C(=O)Nc1ccc(-c2ccccc2)cc1` [AB00022459] showed an IC50 of 0.065 µM. `COc1ccc(-c2cn3c4c(sc3n2)CCCC4)cc1` [AB00315863] was tested, and the IC50 was 0.65 µM. For `Cc1ccc2nc(-c3ccc(NS(=O)(=O)c4ccccc4OC(F)(F)F)cc3)sc2c1` [AB00003451], the IC50 was 0.156 µM. In the case of `Clc1c(CSc2nc3ccccc3o2)nc2sccn12` [AB00428616], the IC50 is reported as 2.41 µM. For `O=C(Nc1ccc2c(c1)OCCO2)Nc1ccc2c(c1)OCO2` [AB00616088], the IC50 was 0.114 µM. Work on `COCCNc1nc(-c2cc3ccccc3o2)cs1` [AB00546194] yielded an IC50 of 1.4 µM. With `Brc1ccc(-c2cn3ccccc3n2)s1` [AB00528862] the IC50 was 0.094 µM. In the case of `COc1ccccc1-c1nc(-c2ccc(C)cc2)no1` [AB00093558], the IC50 is reported as 0.1 µM. For `c1ccc(CSCc2cn3ccsc3n2)cc1` [AB00421150], the IC50 was 12.6 µM.

Each molecule was assayed on SH-5YSY cells (assay: Blasticidin sensitivity of SH-5YSY cells). Details: not given.
Type: cell-based, human
Excerpt: SH-5YSY human neuroblastoma cell line was obtained from the American Tissue Culture collection (ATCC). The cells were expanded and frozen for long term storage. A commercially available expression vector containing the NF-kB promoter enhancer region driving the firefly lucipherase gene expression (see FIG. 1) was obtained. This plasmid was designed for transient expression studies and was devoid of any antibiotic-resistance conferring gene. A second plasmid containing the gene conferring resistance to blasticidin was also used. A dual transfection approach to obtain stable cell lines was employed. Prior to transfection, blasticidin sensitivity of the cell line was performed (See FIG. 2). It was determined that SH-5YSY cells were sensitive to the antibiotic toxicity and that 3 μg/ml caused total cell death (FIG. 2). After expanding and purifying adequate quantities of these plasmids, SH-5YSY cells were co-transfected with the above two plasmids and the clonal selection of the transfected cells in the presence of blasticidin proceeded. […] The optimal conditions for this assay to be carried out in a high throughput setting has been determined. Initially, the optimal number of cells needed was assessed. […] This cell line allows growing large scale quantities of cells fairly easily.
`CN(CC[C@H](N)CC(=O)N[C@H]1C=C[C@H](n2ccc(N)nc2=O)O[C@@H]1C(=O)O)C(=N)N` [blasticidin] was tested, and the “concentration causing total cell death” value was 3 µg/mL.
